System: RGCs and optic nerve axons after optic nerve crush (ONC)
Assay: Mouse model of optic nerve crush (ONC), intravitreal xEFN peptides
Assay type: in vivo
Settings: for RGC pool rescue / survival over PBS-treated controls: intravitreal, 4 weeks after injury; for regenerating axons compared to controls: starting at 100 μm past the injury site and throughout the analysis window
Procedure: Antagonizing forward Eph signaling has been proven beneficial in a number of CNS disorders (Neurogastroenterol Motil. 2020:e13782; Acta Neuropathol Commun. 2018; 6(1):111; Proc Natl Acad Sci USA. 2014 Jul. 8; 111(27):9959-64; Eur J Neurosci. 2014 Oct; 40(7):3021-31; Neuroscience. 2013 Jun. 25; 241:89-99). The use of xEFN peptides as multi-Eph receptor antagonists was evaluated in treating retinal degeneration induced by optic nerve crush (ONC). The ONC model is the most commonly used model for the study of glaucoma and other optic neuropathies. All animal experiments were performed in compliance with the National Institutes of Health (Bethesda, MD, USA) Guide for the Care and Use of Laboratory Animals and the ARVO Statement for the Use of Animals in Ophthalmic and Vision Research. Animal protocols were reviewed and approved by the Institutional Animal Care and Use Committee of the University of Miami. […] With the use of jeweler's forceps (Dumont No. 5; tip dimension, 0.1×0.06 mm), the optic nerve is then crushed for 10 seconds at a location 2 mm distal from its insertion point into the globe. […] […]. At 4 weeks post-injury, animals were euthanized and enucleated for extraction of the retinas and optic nerves. Retinas were stained by immunohistochemistry for TUBB3 and RGCs were manually counted in each animal. Optic nerves were placed into tissue clearing solution for 1 week and then imaged for the CTB-647 label as whole mounts using a Leica SP8 Laser Scanning Confocal microscope (Leica Microsystems). Axonal projections were quantified at 100 μm intervals along the optic nerve track for up to 2 mm past the crush site using the fluorometric intensity measurement and analysis tool in the Leica LAS X microscopy suite software package, using the contralateral nerve (not CTB-injected) as a background reading for 647 nm fluorometric intensity in each sample.

FTIKFQEFSPNLWGL [xEFN_RBD3]
RGC survival (6 μg intravitreal twice (immediately after ONC and 7 days after), 4 weeks, compared to uninjured contralateral retina): 44.17+/−2.39% | axonal projections detected distal to the crush site (CTB labeled axons, 4 weeks post-ONC, analysis region 2000 μm): ≥ 2000 μm | RGC pool rescue / survival over PBS-treated controls: significant rescue | RGC pool rescue / survival over PBS-treated controls (listed as xEFN_EBD3): significant RGC survival | regenerating axons compared to controls: significant increase | regenerating axons compared to controls (listed as xEFN_EBD3): axonal regeneration

From patent US20250042968A1, “EPHRIN LIGAND MIMETIC PEPTIDES FOR THE TREATMENT OF NEURODEGENERATIVE DISEASES” (University of Miami, priority 2022, published 2025)
